# Where two headings read alike, the source gives them in different places.
# Assays:
# V-ATPase = settings: cited from earlier work
# [1] = test system: NADPH-oxidase activation (H2O2 release) in PMNs; test: Respiratory burst (H2O2 assay) in PMNs; type: cell-based, human; settings: for inhibition at 25 µM / inhibition at 50 µM / inhibition at 100 µM: Homo sapiens, read-out: Inhibition of H2O2 release induced by PMA in PMNs (% PMA control); for inhibition at 25 µM: [cpd] 25 μM; for inhibition at 50 µM: [cpd] 50 μM; for inhibition at 100 µM: [cpd] 100 μM
# Experimental: (§1) NADPH-oxidase activation was measured as induction of H2O2 release (derived from dismutation of O2^−) triggered in PMNs and monocytes by PMA (200 ng/ml). Briefly, PMNs and monocytes were pretreated at 37° C. for 30-60 min with test compound at different concentrations, and stimulated with phorbol 12-myristate 13-acetate (PMA, 200 ng/ml) dissolved in 0.5 ml of a standard reaction mixture. Release of H2O2 was evaluated in real time at time points of 5 min by using a microplate fluorescence reader (Perkin-Elmer). Results are expressed as nmoles of H2O2 released over time by 10^6 cells. Shown are dose-response curves of inhibitory effect on H2O2 release over 60 min.
# [2] = test system: NADPH-oxidase activation (H2O2 release) in Monocytes; test: Respiratory burst (H2O2 assay) in monocytes; type: cell-based, human; settings: for inhibition at 0.4 µM / inhibition at 1 µM / inhibition at 25 µM / inhibition at 50 µM / inhibition at 100 µM: Homo sapiens, Monocyte, read-out: Inhibition of H2O2 release induced by PMA in Monocytes (% PMA control); for inhibition at 0.4 µM: [cpd] 0.4 μM; for inhibition at 1 µM: [cpd] 1.0 μM; for respiratory burst / NADPH-oxidase activation induced by PMA in monocytes (in words): PMA 200 ng/ml; for inhibition at 25 µM: [cpd] 25 μM; for inhibition at 50 µM: [cpd] 50 μM; for inhibition at 100 µM: [cpd] 100 μM
# Experimental: as §1
# rat ovariectomized model = settings: cited from earlier work
smiles,measurement,setting,value
"C/C=C/[C@H]1O[C@@](O)([C@@H](C)[C@H](O)[C@H](C)[C@H]2OC(=O)/C(OC)=C/C(C)=C/[C@@H](C)[C@@H](O)[C@@H](CC)[C@@H](O)[C@H](C)C/C(C)=C/C=C/[C@@H]2OC)C[C@@H](O[C@H]2C[C@@H](O)[C@H](OC(N)=O)[C@@H](C)O2)[C@@H]1C [Concanamycin A1, Concanamycin A]",inhibition of V-ATPase (in words),V-ATPase; literature,very potent and highly specific inhibitors
same,inhibition of the release of oxygen radicals in PMNs,[1]; 10 nM concentration,58%
same,Inhibition of H2O2 release induced by PMA in PMNs (% PMA control),"[1]; [cpd] 0.0005 μM, 30 min",33.4%
same,Inhibition of H2O2 release induced by PMA in PMNs (% PMA control),"[1]; [cpd] 0.0005 μM, 40 min",35.2%
same,Inhibition of H2O2 release induced by PMA in PMNs (% PMA control),"[1]; [cpd] 0.0005 μM, 50 min",38.9%
same,Inhibition of H2O2 release induced by PMA in PMNs (% PMA control),"[1]; [cpd] 0.001 μM, 30 min",36.2%
same,Inhibition of H2O2 release induced by PMA in PMNs (% PMA control),"[1]; [cpd] 0.001 μM, 40 min",45.0%
same,Inhibition of H2O2 release induced by PMA in PMNs (% PMA control),"[1]; [cpd] 0.001 μM, 50 min",56.4%
same,Inhibition of H2O2 release induced by PMA in PMNs (% PMA control),"[1]; [cpd] 0.010 μM, 30 min",50.2%
same,Inhibition of H2O2 release induced by PMA in PMNs (% PMA control),"[1]; [cpd] 0.010 μM, 40 min",58.3%
same,Inhibition of H2O2 release induced by PMA in PMNs (% PMA control),"[1]; [cpd] 0.010 μM, 50 min",58.3%
same,inhibition of the release of oxygen radicals in monocytes,[2]; 10 nM concentration,50%
same,Inhibition of H2O2 release induced by PMA in Monocytes (% PMA control),"[2]; [cpd] 0.0005 μM, 30 min",17.0%
same,Inhibition of H2O2 release induced by PMA in Monocytes (% PMA control),"[2]; [cpd] 0.0005 μM, 40 min",26.3%
same,Inhibition of H2O2 release induced by PMA in Monocytes (% PMA control),"[2]; [cpd] 0.0005 μM, 50 min",33.3%
same,Inhibition of H2O2 release induced by PMA in Monocytes (% PMA control),"[2]; [cpd] 0.001 μM, 30 min",35.7%
same,Inhibition of H2O2 release induced by PMA in Monocytes (% PMA control),"[2]; [cpd] 0.001 μM, 40 min",43.4%
same,Inhibition of H2O2 release induced by PMA in Monocytes (% PMA control),"[2]; [cpd] 0.001 μM, 50 min",50.2%
O=C(Nc1cccc2c1nc(C(F)(F)F)n2CC(=O)N1CCOCC1)c1c(Cl)cccc1Cl [FR-177995],concentrations generally active in inhibiting V-ATPase,V-ATPase,0.4 to 1 µM
same,anti-osteoporotic activity,rat ovariectomized model,high anti-osteoporotic activity
same,inhibition at 0.4 µM,"[2]; 0.5 h, 30 min",27.1%
same,inhibition at 1 µM,"[2]; 0.5 h, 30 min",21.3%
same,inhibition at 0.4 µM,"[2]; 40 min, 40 min",29%
same,inhibition at 1 µM,"[2]; 40 min, 40 min",6.3%
same,inhibition at 0.4 µM,"[2]; 50 min, 50 min",26.7%
same,inhibition at 1 µM,"[2]; 50 min, 50 min",5.5%
same,respiratory burst / NADPH-oxidase activation induced by PMA in monocytes (in words),[2],had effect
"CCN1C(=O)C=CC1=O [NEM, N-ethylmaleimide]",concentrations generally active in inhibiting V-ATPase,V-ATPase,> 25 µM
same,inhibition at 25 µM,"[1]; 0.5 h, 30 min",100%
same,inhibition at 50 µM,"[1]; 0.5 h, 30 min",100%
same,inhibition at 100 µM,"[1]; 0.5 h, 30 min",100%
same,inhibition at 25 µM,"[1]; 40 min, 40 min",100%
same,inhibition at 50 µM,"[1]; 40 min, 40 min",100%
same,inhibition at 100 µM,"[1]; 40 min, 40 min",100%
same,inhibition at 25 µM,"[1]; 50 min, 50 min",100%
same,inhibition at 50 µM,"[1]; 50 min, 50 min",100%
same,inhibition at 100 µM,"[1]; 50 min, 50 min",100%
same,respiratory burst / NADPH-oxidase activation induced by PMA in PMNs (in words),[1]; PMA 200 ng/ml,completely blocked
same,inhibition at 25 µM,"[2]; 0.5 h, 30 min",100%
same,inhibition at 50 µM,"[2]; 0.5 h, 30 min",100%
same,inhibition at 100 µM,"[2]; 0.5 h, 30 min",100%
same,inhibition at 25 µM,"[2]; 40 min, 40 min",100%
same,inhibition at 50 µM,"[2]; 40 min, 40 min",100%
same,inhibition at 100 µM,"[2]; 40 min, 40 min",100%
same,inhibition at 25 µM,"[2]; 50 min, 50 min",100%
same,inhibition at 50 µM,"[2]; 50 min, 50 min",100%
same,inhibition at 100 µM,"[2]; 50 min, 50 min",100%
same,respiratory burst / NADPH-oxidase activation induced by PMA in monocytes (in words),[2],completely blocked

# Source: patent US20080317857A1, “V-Atpase Inhibitors of Use in the Treatment of Septic Shock” (Brane Discovery S.r.l., priority 2005, published 2008)
